Reference: publication PMC3242598, “Phase I study of BIBF 1120 with docetaxel and prednisone in metastatic chemo-naive hormone-refractory prostate cancer patients” (British Journal of Cancer, 2011)

Test system: patients with metastatic, chemo-naive, hormone-refractory prostate cancer (HRPC)
Test: Phase I safety analysis: adverse events graded by CTCAE version 3.0
Assay type: in vivo, human
Conditions: all courses
Description: On days 2–21 (21-day cycle), patients took an oral dose of BIBF 1120 twice daily. Patients were instructed to swallow BIBF 1120 with water at the same time every day to ensure a dose interval of ∼12 h. On day 2 of treatment cycles (TCs) 1 and 2, patients only took the morning dose of BIBF 1120, omitting the evening dose to allow PK evaluation. All patients were premedicated with oral corticosteroids (dexamethasone 8 mg per os or methylprednisolone 32 mg per os, at 12 h and 1 h before docetaxel infusion) and subsequently took 5 mg prednisone oral BID throughout the trial. On day 1 of each TC, patients received an IV infusion of 75 mg m^−2 docetaxel administered over 1 h.
All patients who received at least one dose of BIBF 1120 or docetaxel were assessed during the safety analysis. Intensity of AEs was graded according to Common Terminology Criteria for Adverse Events (CTCAE) version 3.0. Objective response was defined as a PSA decline ⩾50% from the baseline value over two consecutive courses and/or tumour response according to RECIST criteria ([Therasse et al, 2000]).

[1] = 100 mg BID (n=3) + docetaxel/prednisone, Gr 3/4
[2] = 100 mg BID (n=3) + docetaxel/prednisone, all grades
[3] = 150 mg BID (n=3) + docetaxel/prednisone, Gr 3/4
[4] = 150 mg BID (n=3) + docetaxel/prednisone, all grades
[5] = 200 mg BID (n=3) + docetaxel/prednisone, Gr 3/4
[6] = 200 mg BID (n=3) + docetaxel/prednisone, all grades

SMILES: COC(=O)c1ccc2c(c1)NC(=O)/C2=C(\Nc1ccc(N(C)C(=O)CN2CCN(C)CC2)cc1)c1ccccc1 [BIBF 1120]
- Ageusia: patients with drug-related AE [1]: 0
- Alopecia: patients with drug-related AE [1]: 0
- Anorexia: patients with drug-related AE [1]: 0
- Asthenia: patients with drug-related AE [1]: 0
- Constipation: patients with drug-related AE [1]: 0
- Diarrhoea: patients with drug-related AE [1]: 0
- Dysgeusia: patients with drug-related AE [1]: 0
- Dyspepsia: patients with drug-related AE [1]: 0
- Dysphonia: patients with drug-related AE [1]: 0
- Elevated ALT: patients with drug-related AE [1]: 0
- Elevated AST: patients with drug-related AE [1]: 0
- Elevated GGT: patients with drug-related AE [1]: 0
- Elevated alkaline phosphatase: patients with drug-related AE [1]: 0
- Epistasis: patients with drug-related AE [1]: 0
- Headache: patients with drug-related AE [1]: 0
- Hot flush: patients with drug-related AE [1]: 0
- Mucosal inflammation: patients with drug-related AE [1]: 0
- Muscle spasm: patients with drug-related AE [1]: 0
- Nausea: patients with drug-related AE [1]: 0
- Neuropathy: patients with drug-related AE [1]: 0
- Pyrexia: patients with drug-related AE [1]: 0
- Rash: patients with drug-related AE [1]: 0
- Upper abdominal pain: patients with drug-related AE [1]: 0
- Vomiting: patients with drug-related AE [1]: 0
- Weight decrease: patients with drug-related AE [1]: 0
- Ageusia: patients with drug-related AE [2]: 0
- Alopecia: patients with drug-related AE [2]: 0
- Anorexia: patients with drug-related AE [2]: 0
- Asthenia: patients with drug-related AE [2]: 0
- Constipation: patients with drug-related AE [2]: 0
- Diarrhoea: patients with drug-related AE [2]: 0
- Dysgeusia: patients with drug-related AE [2]: 0
- Dyspepsia: patients with drug-related AE [2]: 0
- Dysphonia: patients with drug-related AE [2]: 0
- Elevated ALT: patients with drug-related AE [2]: 0
- Elevated AST: patients with drug-related AE [2]: 0
- Elevated GGT: patients with drug-related AE [2]: 0
- Elevated alkaline phosphatase: patients with drug-related AE [2]: 0
- Epistasis: patients with drug-related AE [2]: 0
- Headache: patients with drug-related AE [2]: 0
- Hot flush: patients with drug-related AE [2]: 0
- Mucosal inflammation: patients with drug-related AE [2]: 0
- Muscle spasm: patients with drug-related AE [2]: 0
- Nausea: patients with drug-related AE [2]: 0
- Neuropathy: patients with drug-related AE [2]: 0
- Pyrexia: patients with drug-related AE [2]: 0
- Rash: patients with drug-related AE [2]: 0
- Upper abdominal pain: patients with drug-related AE [2]: 0
- Vomiting: patients with drug-related AE [2]: 0
- Weight decrease: patients with drug-related AE [2]: 0
- Ageusia: patients with drug-related AE [3]: 0
- Alopecia: patients with drug-related AE [3]: 0
- Anorexia: patients with drug-related AE [3]: 0
- Asthenia: patients with drug-related AE [3]: 0
- Constipation: patients with drug-related AE [3]: 0
- Diarrhoea: patients with drug-related AE [3]: 0
- Dysgeusia: patients with drug-related AE [3]: 0
- Dyspepsia: patients with drug-related AE [3]: 0
- Dysphonia: patients with drug-related AE [3]: 0
- Elevated ALT: patients with drug-related AE [3]: 0
- Elevated AST: patients with drug-related AE [3]: 0
- Elevated GGT: patients with drug-related AE [3]: 0
- Elevated alkaline phosphatase: patients with drug-related AE [3]: 0
- Epistasis: patients with drug-related AE [3]: 0
- Headache: patients with drug-related AE [3]: 0
- Hot flush: patients with drug-related AE [3]: 0
- Mucosal inflammation: patients with drug-related AE [3]: 0
- Muscle spasm: patients with drug-related AE [3]: 0
- Nausea: patients with drug-related AE [3]: 0
- Neuropathy: patients with drug-related AE [3]: 0
- Pyrexia: patients with drug-related AE [3]: 0
- Rash: patients with drug-related AE [3]: 0
- Upper abdominal pain: patients with drug-related AE [3]: 0
- Vomiting: patients with drug-related AE [3]: 0
- Weight decrease: patients with drug-related AE [3]: 0
- Ageusia: patients with drug-related AE [4]: 1
- Alopecia: patients with drug-related AE [4]: 0
- Anorexia: patients with drug-related AE [4]: 3
- Asthenia: patients with drug-related AE [4]: 3
- Constipation: patients with drug-related AE [4]: 1
- Diarrhoea: patients with drug-related AE [4]: 3
- Dysgeusia: patients with drug-related AE [4]: 1
- Dyspepsia: patients with drug-related AE [4]: 1
- Dysphonia: patients with drug-related AE [4]: 1
- Elevated ALT: patients with drug-related AE [4]: 0
- Elevated AST: patients with drug-related AE [4]: 0
- Elevated GGT: patients with drug-related AE [4]: 0
- Elevated alkaline phosphatase: patients with drug-related AE [4]: 0
- Epistasis: patients with drug-related AE [4]: 1
- Headache: patients with drug-related AE [4]: 2
- Hot flush: patients with drug-related AE [4]: 0
- Mucosal inflammation: patients with drug-related AE [4]: 0
- Muscle spasm: patients with drug-related AE [4]: 0
- Nausea: patients with drug-related AE [4]: 2
- Neuropathy: patients with drug-related AE [4]: 1
- Pyrexia: patients with drug-related AE [4]: 1
- Rash: patients with drug-related AE [4]: 0
- Upper abdominal pain: patients with drug-related AE [4]: 1
- Vomiting: patients with drug-related AE [4]: 0
- Weight decrease: patients with drug-related AE [4]: 1
- Ageusia: patients with drug-related AE [5]: 0
- Alopecia: patients with drug-related AE [5]: 0
- Anorexia: patients with drug-related AE [5]: 0
- Asthenia: patients with drug-related AE [5]: 0
- Constipation: patients with drug-related AE [5]: 0
- Diarrhoea: patients with drug-related AE [5]: 2
- Dysgeusia: patients with drug-related AE [5]: 0
- Dyspepsia: patients with drug-related AE [5]: 0
- Dysphonia: patients with drug-related AE [5]: 0
- Elevated ALT: patients with drug-related AE [5]: 0
- Elevated AST: patients with drug-related AE [5]: 0
- Elevated GGT: patients with drug-related AE [5]: 0
- Elevated alkaline phosphatase: patients with drug-related AE [5]: 0
- Epistasis: patients with drug-related AE [5]: 0
- Headache: patients with drug-related AE [5]: 0
- Hot flush: patients with drug-related AE [5]: 0
- Mucosal inflammation: patients with drug-related AE [5]: 0
- Muscle spasm: patients with drug-related AE [5]: 0
- Nausea: patients with drug-related AE [5]: 0
- Neuropathy: patients with drug-related AE [5]: 0
- Pyrexia: patients with drug-related AE [5]: 0
- Rash: patients with drug-related AE [5]: 0
- Upper abdominal pain: patients with drug-related AE [5]: 0
- Vomiting: patients with drug-related AE [5]: 0
- Weight decrease: patients with drug-related AE [5]: 0
- Ageusia: patients with drug-related AE [6]: 0
- Alopecia: patients with drug-related AE [6]: 0
- Anorexia: patients with drug-related AE [6]: 0
- Asthenia: patients with drug-related AE [6]: 1
- Constipation: patients with drug-related AE [6]: 0
- Diarrhoea: patients with drug-related AE [6]: 2
- Dysgeusia: patients with drug-related AE [6]: 0
